US8420696B2, “Use of low-dose ladostigil for neuroprotection” (priority 2005, dated 2013)

Test system: rats injected icv with STZ (episodic memory)
Assay: Object recognition test after icv STZ
Format: in vivo, Sprague-Dawley rats
Details: for Effect on the deficit in episodic memory: four weeks after icv STZ
Procedure: Male Sprague-Dawley rats (63) weighing 320-340 g, aged 4 months, were anesthetized by an intraperitoneal injection of Equithesin 0.3 ml/kg. STZ (0.5 mg) dissolved in 2 μl artificial cerebrospinal fluid (CSF) was injected into each lateral ventricle of 45 rats. The stereotaxic co-ordinates for icv injection were: 0.9 mm posterior, 1.8 mm lateral and 3.8 mm ventral from the bregma level. Control rats (18) received a bilateral injection of 2 μl artificial CSF. […] The remaining 20 rats received 1 ml/kg water. The rats were housed two per cage with free access to food and water until the behavioral, enzymatic and cytochemical measurements were completed.
Episodic memory in the object recognition test was still intact 2 but not 4 weeks after a single icv STZ injection (Table 3). Therefore, rats that were treated with ladostigil or water were tested for object and place recognition 4 weeks after icv injection of STZ or CSF. The object recognition test measured non-spatial working memory with characteristics of episodic memory that is primarily affected in senile dementia (Bartolini et al., Aniracetam restores object recognition impaired by age, scopolamine, and nucleus basalis lesions, Pharmacol. Biochem. Behav. (1996) 53:277-83). The test depended on intact cortical and hippocampal function (Winters et al., Double dissociation between the effects of peri-postrhinal cortex and hippocampal lesions on tests of object recognition and spatial memory: heterogeneity of function within the temporal lobe, J. Neuroscience (2004) 24:5901-8), while place recognition, another manifestation of spatial memory, was dependent on intact hippocampal function. The experiments were carried out as previously described in Mumby et al., Hippocampal damage and exploratory preferences in rats: memory for objects, places, and contexts, Learning Memory (2002) 9:49-57, in a box made of dark Perspex (60×60 cm and 50 cm high), covered with a dark Perspex lid. In order to increase their interest in the objects, rats were familiarized with the test arena by placing them in it for 5 min on each of 3 successive days and the object recognition test performed on the 4th day. Two identical objects were placed in the arena and the time taken by the rats to explore each object during a period of 3 min was recorded. One hour later, the objects were replaced by one that was identical to the two used in the first test and a second one that was different from them and the time taken to explore each of them was again recorded. The following day, the place recognition test was carried out with two identical objects as described above but different from those used previously. One hour later, the one of the two objects was moved to another position in the arena as described in Mumby et al., supra.
Group means of 3 measures in the object and place recognition tests, duration of exploration in first and second phases and discrimination index were submitted to one way ANOVA. Mean daily escape latencies for trial 1 and trial 2 in the MWM in each group were analyzed by repeated measures ANOVA for DAY and GROUP followed by Duncan's post hoc test where appropriate. Histological data were analyzed by univariate ANOVA followed by Duncan's post hoc test. All values represent means±SEM.

In the case of `C#CCN[C@@H]1CCc2ccc(OC(=O)N(C)CC)cc21` [ladostigil, R(+)-6-(N-methyl,N-ethyl-carbamoyloxy)-N′-propargyl-1-aminoindan], the “Deficit in episodic memory two days after dose” value (17 mg/kg single dose, two days later when ChE was no longer inhibited) is reported as “returned two days later”, the “Discrimination index, Object” value (STZ (4 weeks) + 17 mg/kg acute) is reported as 0.348 ± 0.112 and the “Discrimination index, Object” value (STZ (4 weeks) + 17 mg/kg acute, two days later) is reported as −0.112 ± 0.08. The “Discrimination index, Object” value (STZ (4 weeks) + ladostigil 1 mg/kg acute) was 0.010 ± 0.08, the “Discrimination index, Object” value (STZ (4 weeks) + ladostigil 1 mg/kg chronic, mean ± s.e.m.) was 0.238 ± 0.05 and the “Discrimination in object recognition test” value (icv STZ with chronic ladostigil, significantly >0, P<0.05) was “significant discrimination index”. The “Effect on the deficit in episodic memory” value (single dose 17 mg/kg) was “the memory deficit was abolished” and the “Effect on the deficit in episodic memory” value (single dose of 1 mg/kg) was “no effect”.
